Like-named read-outs stand apart in the source and are kept apart here.
Experiments:
ES3 = test: Cytotoxicity, resazurin fluorescence, ES3; type: cell-based; conditions: Table 6; 72 hr; EWS cells
5838 = test: Cytotoxicity, resazurin fluorescence, 5838; type: cell-based; conditions: Table 6; 72 hr; express EWS-ERG
A549 = test: Cytotoxicity, resazurin fluorescence, A549; type: cell-based; conditions: Table 6; 72 hr; non EWS cells; read-out: GI50 A549
EWS-FLI1 = conditions: screen of more than 50,000 natural products and synthetic compounds; cited from earlier work
Hela = test: Cytotoxicity, resazurin fluorescence, Hela; type: cell-based; conditions: Table 6; 72 hr; non EWS cells; read-out: GI50 Hela
A673 = test: Cytotoxicity, resazurin fluorescence, A673; type: cell-based; conditions: Table 6; 72 hr; EWS cells
PANC1 = test: Cytotoxicity, resazurin fluorescence, PANC1; type: cell-based; conditions: Table 6; 72 hr; non EWS cells; read-out: GI50 PANC1
H460 = test: Cytotoxicity, resazurin fluorescence, H460; type: cell-based; conditions: Table 6; 72 hr; non EWS cells; read-out: GI50 H460
TC32 = test: Cytotoxicity, resazurin fluorescence, TC32; type: cell-based; conditions: 72 hr, read-out: GI50 TC32
Summary of the method: (§1)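 Cells seeded at 1000-5000/well were left to attach and grow 24 hr, then given compounds in half-log steps from 0.3 nM-10 μM. Viability was read by resazurin fluorescence after 72 hr continuous exposure, and GI50 values were estimated from the curves.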

PC3 = test: Cytotoxicity, resazurin fluorescence, PC3; type: cell-based; conditions: 72 hr, read-out: GI50 PC3
Summary of the method: as §1

DU145 = test: Cytotoxicity, resazurin fluorescence, DU145; type: cell-based; conditions: Table 6; 72 hr; non EWS cells; read-out: GI50 DU145
ES7 = test: Cytotoxicity, resazurin fluorescence, ES7; type: cell-based; conditions: Table 6; 72 hr; EWS cells
TC71 = test: Cytotoxicity, resazurin fluorescence, TC71; type: cell-based; conditions: Table 6; 72 hr; EWS cells
EWS cells = test: Cytotoxicity, average over Ewing (EWS) cell panel; type: cell-based; conditions: Table 6; 72 hr; average of EWS cells
Experimental: (§2) Exemplary compounds of the presently-disclosed subject matter were assessed for cytotoxicity (Table 5) in Ewing sarcoma (TC32) and non-Ewing (PC3 prostate cancer). […] Cells (1000-5000/well) were seeded in 96-well plates and allowed to attach and grow for 24 hr prior to adding compounds in half-log increments from 0.3 nM-10 μM. Cell viability was assessed after 72 hr continuous incubation with compounds using resazurin fluorescence. GI50 values were estimated using GraphPad Prism.

SK.ES1 = test: Cytotoxicity, resazurin fluorescence, SK.ES1; type: cell-based; conditions: Table 6; 72 hr; EWS cells
ES8 = test: Cytotoxicity, resazurin fluorescence, ES8; type: cell-based; conditions: Table 6; 72 hr; EWS cells
ES4 = test: Cytotoxicity, resazurin fluorescence, ES4; type: cell-based; conditions: Table 6; 72 hr; EWS cells
Non EWS cells = test: Cytotoxicity, average over non-Ewing cell panel; type: cell-based; conditions: Table 6; 72 hr; average of non EWS cells; read-out: GI50 Average, Non EWS cells
Experimental: as §2

HepG2 = test: Cytotoxicity, resazurin fluorescence, HepG2; type: cell-based; conditions: Table 6; 72 hr; hepatic origin; read-out: GI50 HepG2
BL1395 = test: Cytotoxicity, resazurin fluorescence, BL1395; type: cell-based; conditions: Table 6; 72 hr; lymphocyte origin; read-out: GI50 BL1395
LNCap = test: Cytotoxicity, resazurin fluorescence, LNCap; type: cell-based; conditions: Table 6; 72 hr; non EWS cells; read-out: GI50 LNCap
RDES = test: Cytotoxicity, resazurin fluorescence, RDES; type: cell-based; conditions: Table 6; 72 hr; EWS cells
[1] = cited from earlier work

Substance: mithramycin A [MTM, reference compound]
- GI50 (ES3): 12.8 nM
- GI50 5838: 11.2 nM
- GI50 (A549): 54 nM
- inhibition of EWS-FLI1 (EWS-FLI1): top inhibitor
- GI50 (Hela): 28.4 nM
- GI50 (A673): 9.1 nM
- GI50 (PANC1): 22.3 nM
- GI50 (H460): 6.8 nM
- GI50 (TC32; Table 5): 10 nM
- GI50 (TC32; Table 6, EWS cells): 10.4 nM
- GI50 (PC3; Table 5): 11 nM
- GI50 (PC3; Table 6, non EWS cells): 11.3 nM
- GI50 (DU145): 16.4 nM
- GI50 (ES7): 10 nM
- GI50 (TC71): 10.3 nM
- GI50 (EWS cells): 10.9 nM
- GI50 (SK.ES1): 10.2 nM
- GI50 (ES8): 17.4 nM
- GI50 (ES4): 7.3 nM
- GI50 (Non EWS cells): 28.9 nM
- GI50 (HepG2): 28.4 nM
- GI50 (BL1395): 9.9 nM
- GI50 (LNCap): 82.7 nM
- GI50 (RDES): 10.6 nM
- clinical trial outcome ([1]; NCI clinical study, Ewing sarcoma patients): terminated early, due to toxicities
- therapeutic index ([1]; clinical evaluation, 1960s and 70s): narrow therapeutic index

From patent US20260297121A1, “MITHRAMYCIN (MTM) 2’ OXIMES” (University of Kentucky Research Foundation, priority 2023, published 2026)
